{"source": "patent US6887894B2", "about": "“Use of lipoic acid for improving the bioavailability of mineral salts” (BASF Aktiengesellschaft, priority 2000, dated 2005)", "assay_type_in_all_cases": "in vivo", "key": {"[1]": {"assay": "Study 1/Study 2: bioavailability of Zn lipoate and ZnSO4 in rats (Example 4, Comparison Example 1)", "description": "Male Albino rats (Wistar) of an initial weight of 40 g were used. The animals were kept during each 28-day experimental period at a room temperature of 22° C., a relative humidity of approximately 55% and in a 12-hour light-dark cycle. The rats were housed individually in Makrolon cages with stainless steel bottoms which permitted controlled feed intake and quantitative collection of feces and urine. The feed was provided once a day at 8^00. The live mass of the rats was determined weekly, feces and urine were collected every day at 10^00 and 17^00. At the end of the experiment, the rats were decapitated after chloroform anesthesia. • 4.2 Description of the diets and experimental design\n6 rats are used per experimental group. The mealy diets were administered ad lib. […] The control group (group 1) received the PA-free base diet.\nThe amounts of feces and urine produced separately in the metabolic cages are collected quantitatively every day and stored at −22° C. To avoid any losses of N in the urine collection vessels, 1 ml of 20% strength HCl (Suprapur) is added to each of the vessels daily. For further analysis, the sample material is freeze-dried for 48 h. • 4.3.2 Organ and tissue samples\nThe right femur, liver and testes are removed immediately after decapitation and complete exsanguination of the animals and the fresh mass is determined. The samples are sealed in plastic film and stored at −22° C. until further analysis. • 4.3.3 Blood\nThe rats are decapitated at the end of the experiment after complete narcosis with chloroform and the blood collected in heparinized plastic tubes. 40 I.U. of heparin sodium are introduced per ml of blood. […]\nZinc is determined by means of atomic absorption spectrophotometry (AAS) in an acetylene flame. • 4.5 Diagnosis of zinc status • 4.5.1 Determination of the plasma zinc concentration\nThe plasma zinc concentration is measured directly in the flame by means of AAS (Philips, PIJ 9400). […]\nThe enzyme activity is measured kinetically on a semimicroscale at a wavelength of 405 nm and 25° C. using a UV spectrophotometer. […]"}, "[2]": {"assay": "Study 3: zootechnical parameters (feed intake, live weight) of growing rats", "conditions": "for LW Gain: 28 days; for Live weight d0: initial weight", "method": "(§1) 36 male Wistar albino rats (Harlan Winkelmann, Borchen) having an initial weight of 47.0±2.63 g were randomly divided into 6 groups each of 6 animals and fed the diets specified in Table 7 (experimental design) and Section 5.2 over a period of 28 days. The animals were kept individually in Makrolon cages on stainless grids under standard conditions (22° C., 55% relative humidity, 12 hour light/dark rhythm). Feed and deionized drinking water were available to the experimental animals ad libitum. During the 2nd and 3rd experimental week (metabolism phase) feces were collected quantitatively. After completion of the experimental phase (day 28), the animals were decapitated under CO2— anesthesia, exsanguinated and the tissue to be analyzed was removed. Groups Ib, IIb and IIIb here are Example 5, while Groups Ia, IIa and IIIa are Comparison Example 2.\nParameters used to estimate Zn availability were the zootechnical parameters feed intake, live weight development and live weight increase, apparent Zn absorption, alkaline phosphatase activity in plasma, plasma and femur Zn concentration and metallothionin concentration in liver tissue. • 5.2 Experimental diets\nThe experimental animals were fed semisynthetic diets based on high-purity components (corn starch, egg albumin protein, sucrose, soybean oil and cellulose) over a period of 28 days (see Table 8 for composition of the base diet), the experimental diets differing with respect to the type of zinc compound supplemented, the absolute Zn concentration and the phytic acid content (0.4% PA from NaPA, Sigma-Aldrich, Steinheim) (see Table 7).\nZn supplements used were Zn ((R)-α-Lipoat)2(H2O)2 from Example 1 (Example 5) and Zn sulfate (ZnSO4.7 H2O analytical grade, Merck, Darmstadt) (Comparison Example 2). The Zn concentrations of the experimental diets Ia-IIb were set at a level of 10 mg/kg of diet estimated to be marginal for growing rats, in order to enable investigation of the availability of the Zn supplements under test in the suboptimun supply range."}, "[3]": {"assay": "Study 3: Zn intake, fecal excretion and apparent absorption of zinc", "conditions": "rats", "method": "as §1\nDuring the two-week metabolism phase, the rat feces were collected daily, adherent feed residues and other impurities were removed and the samples were stored at −20° C. At the end of the metabolism period the fecal weight was determined quantitatively and feces were then freeze-dried under vacuum over a period of 48 h (Gamma 1-20, Christ, Osterode). The dried samples were finely around using a domestic grinder (Moulinette electronic 89902) and stored at ambient temperature in PE bottles.\nA sample aliquot of 1.5 g or the freeze-dried and ground fecal samples was dried for 24 h at 105° C. to remove residual water and then ashed in a muffle furnace at 450° C. for 21 h. The ash residue was dissolved by acid addition and then analyzed quantitatively. The Zn concentration in the fecal samples was determined by flame-AAS (Philips, PU 9400, Kassel). • 5.3.4 Diagnosis of Zn status\n(§2) Zn absorption was calculated, without taking into account endogenous level as a difference between element […] and fecal excretion (=apparent absorption). Plasma Zn concentration was determined by AAS (Philips, PU 9400, Kassel). The samples were diluted with 0.1 M HCl in a ratio of 1:20 (v/v). The activity of the Zn metalloenzyme alkaline phosphatase (AP) (E.C. 3.1.3.1) wan assayed using the individual chemicals diethanolamine buffer and p-nitrophenyl phosphate according to the recommendations of the […] FÜR […] CHIMIE [German Clinical Chemistry Society] ([…] FÜR […] CHEMIE (1972). Standardmethode zur Bestimmung der Aktivität der alkalischen Phosphatase (AP) [Standard Method for Determining Alkaliur Phosphatase (AP) Activity]. Z. klin. Chem u. klin. Biochemie. 10, 191). • 5.3.5 Metallothionin in liver tissue"}, "[4]": {"assay": "Study 3: Zn concentration in the femur", "conditions": "rats; for Zn concentration in Femur: day 28", "method": "as §1\nThe ash solutions were prepared by the principle of wet ashing. The sample material was admixed with 10 ml of 65% strength HNO3 (Merck, Suprapur) and then boiled under a reflux condenser in a digestion apparatus (Gerhardt SMA-20, Bonn). This oxidatively degraded the organic matrix and completely mineralized the test material. The Zn concentration was determined in the ash solutions by flame-AAS (Philips, PU 9400, Kassel). • 5.3.3 Analysis of the fecal samples"}, "[5]": {"test_system": "alkaline phosphatase (AP) (E.C. 3.1.3.1)", "assay": "Study 3: alkaline phosphatase activity in plasma", "conditions": "rats, day 28", "method": "as §1, §2"}, "metallothionin": {"test_system": "metallothionin", "assay": "Study 3: metallothionin in liver tissue", "conditions": "rats; for Metallothionin concentration in liver tissue: day 28", "method": "as §1\nTotal MT concentration in liver tissue was determined using the cadmium-binding method of EATON and TOAL (EATON, D. L., TOAL, B. F. (1982): Evaluation of the cadmium/hemoglobin affinity assay for the rapid determination of metallothionein in biological tissues. Toxicol Appl. Pharmacol. 66, 134-142) in a modification tested at the Giessen Institute (LEUNERT, V. (1994): Einfluβ von Zink sowie fetalem Kälberserum, bovinem Serumalbumin und calciummobilisierenden Rezeptoragonlsten auf Metallothionein in primär kultivierten Rattenhepatocyten [Effect of zinc and fecal calf serum, vine serum albumin and calcium-immobilizing receptor agonists on metallothionin in primary cultivations of rat hepatocytes]. Inaugural dissertation at the Institut für Tierernahrung und Ernährungse-physiologie [Institute of Animal Nutrition and Nutritional Physiology] of the University of Cicesen, Verlag Shaker, Aachen, PALLAUF et al. 1995). The protein content in liver homogenates war determined using the Lowry-Folin method (DAWSON, R. M. C. ELLIOTT, D C; JONES, K. M. (1986): Data for biochemical research, 3rd ed., Clarendon Press, New York, 543). • 5.3.5. Statistical analysis"}, "[6]": {"conditions": "10 ppm Zn, PA-free diet (group I)"}, "[7]": {"conditions": "20 ppm Zn + 0.4% PA (group III)"}}, "note": "Where “and” joins values, the source holds several entries; their conditions need not be identical. Equal entries are not always repeated. Marks after values point to notes of the source that are not given here."}
{"smiles": "O=C(O)CCCC[C@@H]1CCSS1", "note": "[Zn lipoate, Zn((R)-α-lipoate)2(H2O)2]", "values": [{"measurement": "zinc deficiency symptoms (anorexia, alopecia, depression of growth)", "setting": "[1]; diet with 0.4% NaPA, high dose 20 mg Zn/kg of feed, 28 days", "value": "disappear completely"}, {"measurement": "Zn status parameters of blood plasma (Zn concentration, free zinc binding capacity, alkaline phosphatase activity) and femur and liver Zn concentration", "setting": "[1]; in comparison with Zn sulfate", "value": "improved"}, {"measurement": "Feed intake Total", "setting": "[2]; 10 ppm Zn + 0.4% PA (group II)", "value": "186 ^a g/28d"}, {"measurement": "Feed intake d1-d7", "setting": "[2]; 10 ppm Zn + 0.4% PA (group II)", "value": "39.5 ^ab g"}, {"measurement": "Feed intake d8-d14", "setting": "[2]; 10 ppm Zn + 0.4% PA (group II)", "value": "46.5 ^a g"}, {"measurement": "Feed intake d15-d21", "setting": "[2]; 10 ppm Zn + 0.4% PA (group II)", "value": "48.2 ^a g"}, {"measurement": "Feed intake d22-d28", "setting": "[2]; 10 ppm Zn + 0.4% PA (group II)", "value": "51.3 ^a g"}, {"measurement": "Live weight d7", "setting": "[2]; 10 ppm Zn + 0.4% PA (group II)", "value": "60.0^ab g"}, {"measurement": "Live weight d14", "setting": "[2]; 10 ppm Zn + 0.4% PA (group II)", "value": "82.5^a g"}, {"measurement": "Live weight d21", "setting": "[2]; 10 ppm Zn + 0.4% PA (group II)", "value": "99.1^a g"}, {"measurement": "Live weight d28", "setting": "[2]; 10 ppm Zn + 0.4% PA (group II)", "value": "114.2^a g"}, {"measurement": "LW Gain", "setting": "[2]; 10 ppm Zn + 0.4% PA (group II)", "value": "67.0^a g"}, {"measurement": "Live weight d0", "setting": "[2]; 10 ppm Zn + 0.4% PA (group II)", "value": 47.2, "unit": "g"}, {"measurement": "Feed intake Total", "setting": "[2]; [6]", "value": "307 ^b g/28d"}, {"measurement": "Feed intake d1-d7", "setting": "[2]; [6]", "value": "54.9 ^ab g"}, {"measurement": "Feed intake d8-d14", "setting": "[2]; [6]", "value": "78.7 ^c g"}, {"measurement": "Feed intake d15-d21", "setting": "[2]; [6]", "value": "86.9 ^c g"}, {"measurement": "Feed intake d22-d28", "setting": "[2]; [6]", "value": "86.5 ^b g"}, {"measurement": "Live weight d7", "setting": "[2]; [6]", "value": "75.6^ab g"}, {"measurement": "Live weight d14", "setting": "[2]; [6]", "value": "122.5^b g"}, {"measurement": "Live weight d21", "setting": "[2]; [6]", "value": "159.2^c g"}, {"measurement": "Live weight d28", "setting": "[2]; [6]", "value": "185.8^c g"}, {"measurement": "LW Gain", "setting": "[2]; [6]", "value": "138.7^c g"}, {"measurement": "Live weight d0", "setting": "[2]; [6]", "value": 47.1, "unit": "g"}, {"measurement": "Feed intake Total", "setting": "[2]; [7]", "value": "300 ^b g/28d"}, {"measurement": "Feed intake d1-d7", "setting": "[2]; [7]", "value": "60.0 ^b g"}, {"measurement": "Feed intake d8-d14", "setting": "[2]; [7]", "value": "77.3 ^c g"}, {"measurement": "Feed intake d15-d21", "setting": "[2]; [7]", "value": "79.2 ^bc g"}, {"measurement": "Feed intake d22-d28", "setting": "[2]; [7]", "value": "83.5 ^b g"}, {"measurement": "Live weight d7", "setting": "[2]; [7]", "value": "77.9^b g"}, {"measurement": "Live weight d14", "setting": "[2]; [7]", "value": "119.1^b g"}, {"measurement": "Live weight d21", "setting": "[2]; [7]", "value": "147.4^bc g"}, {"measurement": "Live weight d28", "setting": "[2]; [7]", "value": "173.2^bc g"}, {"measurement": "LW Gain", "setting": "[2]; [7]", "value": "125.9^bc g"}, {"measurement": "Live weight d0", "setting": "[2]; [7]", "value": 47.3, "unit": "g"}, {"measurement": "total feed intake, change owing to Zn-α-lipoate feeding", "setting": "[2]; 28-day period, versus Zn sulfate groups", "value": "increase"}, {"measurement": "live weight gain, Zn lipoate compared with Zn sulfate", "setting": "[2]; in each case (groups I, II, III)", "value": "increase"}, {"measurement": "absolute Zn absorption, Zn lipoate group versus Zn sulfate group", "setting": "[3]; 20 mg Zn/kg of diet + 0.4% PA (groups IIIa, IIIb)", "value": "statistically significant higher"}, {"measurement": "Apparent absorption of Zn", "setting": "[3]; 10 ppm Zn + 0.4% PA (group II)", "value": "47.3 ^a %"}, {"measurement": "Apparent absorption of Zn (absolute)", "setting": "[3]; 10 ppm Zn + 0.4% PA (group II)", "value": "0.446 ^a mg/14 d"}, {"measurement": "Fecal excretion of Zn", "setting": "[3]; 10 ppm Zn + 0.4% PA (group II)", "value": "0.494 ^a mg/14 d"}, {"measurement": "Apparent absorption of Zn", "setting": "[3]; [6]", "value": "73.6 ^b %"}, {"measurement": "Apparent absorption of Zn (absolute)", "setting": "[3]; [6]", "value": "1.24 ^b mg/14 d"}, {"measurement": "Fecal excretion of Zn", "setting": "[3]; [6]", "value": "0.445 ^a mg/14 d"}, {"measurement": "Apparent absorption of Zn", "setting": "[3]; [7]", "value": "48.4 ^a %"}, {"measurement": "Apparent absorption of Zn (absolute)", "setting": "[3]; [7]", "value": "1.60 mg/14 d and 1.60 ^c mg/14 d"}, {"measurement": "Fecal excretion of Zn", "setting": "[3]; [7]", "value": "1.71 ^b mg/14 d"}, {"measurement": "apparent Zn absorption (%), effect of Zn lipoate supplementation", "setting": "[3]; PA diets, group IIa to IIb and IIIa to IIIb", "value": "increase"}, {"measurement": "Zn concentration in Femur", "setting": "[4]; 10 ppm Zn + 0.4% PA (group II)", "value": "41.2 ^a μg/g FW"}, {"measurement": "Zn concentration in Femur", "setting": "[4]; [6]", "value": "79.2 ^c μg/g FW"}, {"measurement": "Zn concentration in Femur", "setting": "[4]; [7]", "value": "64.1 ^b μg/g FW"}, {"measurement": "level of Zn incorporation into the femur tissue, compared with Zn sulfate", "setting": "[4]; with addition of phytate", "value": "beneficial effect"}, {"measurement": "Alkaline Phosphatase activity in plasma", "setting": "[5]; 10 ppm Zn + 0.4% PA (group II)", "value": "225 ^a mU/ml Plasma"}, {"measurement": "Alkaline Phosphatase activity in plasma", "setting": "[5]; [6]", "value": "365 ^b mU/ml Plasma"}, {"measurement": "Alkaline Phosphatase activity in plasma", "setting": "[5]; [7]", "value": "384 ^b mU/ml Plasma"}, {"measurement": "Metallothionin concentration in liver tissue", "setting": "metallothionin; 10 ppm Zn + 0.4% PA (group II)", "value": 7.94, "unit": "ng MT/mg Protein"}, {"measurement": "Metallothionin concentration in liver tissue", "setting": "metallothionin; [6]", "value": 8.32, "unit": "ng MT/mg Protein"}, {"measurement": "Metallothionin concentration in liver tissue", "setting": "metallothionin; [7]", "value": 8.71, "unit": "ng MT/mg Protein"}, {"measurement": "hepatic MT concentration, Zn lipoate versus ZnSO4 as Zn source", "setting": "metallothionin; all groups (I, II and III)", "value": "nominal increases"}]}
